Measured values published in patent publication US12565504B2, “Spirocyclic O-glycoprotein-2-acetamido-2-deoxy-3-d-glucopyranosidase inhibitors” (BIOGEN MA INC., priority 2019, dated 2026).
Read-outs that look alike come from different tables or passages of the source.

Key:
[1] = rat, microsomes, 1 μM, pH 7.4
Protocol: (§1) Aliquots (40 uL) at 0, 5, 10, 15, 25 and 40 minutes post NADPH addition (or compound addition for reactions in absence of NADPH) were transferred into individual 96-well plate wells containing 40 ng/ml of 8-cyclopently-1,3-dipropylxanthine (CPDPX, internal standard) in 160 uL acetonitrile:methanol (1:1 v/v).
(§2) The LC/MS/MS system consisted of an ultra high throughput RapidFire® 300 system (Agilent Technologies, Santa Clara, CA) coupled to a Triple Quad 5500 mass spectrometer (ABSciex, Foster City, CA). Sample load and wash were performed on a RapidFire® C4 cartridge using 0.1% formic acid in water as mobile phase A and sample elution using 0.1% formic acid in acetonitrile:methanol (1:1 v/v) as mobile phase B.
(§3) CLint, app (apparent intrinsic clearance) was calculated using the following equation for microsome stability.
(§4) [formula] • where “a” represents 45 grams of liver/kg of body weight for rat. • CLint,app (apparent intrinsic clearance) was calculated using the following equation for hepatocyte stability: • CLhep (hepatic clearance) was calculated using the following equation for microsomes
(§5) [formula] • using 55 mL/minute/kg as Qh (hepatic blood flow) for rat.

[2] = molecular target: Recombinant full length human OGA enzyme (Homo sapiens (Human), UniProt O60502); assay: OGA Enzyme Inhibition Biochemical Assay; settings: 1 nM OGA, 100 μM 4-MUGlcNAc, 90 minutes, pH 6.4
Summary of the method: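 Full-length recombinant human OGA with fluorogenic 4-MUGlcNAc in McIlvaine buffer pH 6.4, 0.01% BSA; 90 min at room temperature, glycine pH 10 quench, fluorescence Ex 355/Em 460 nm. 10-point, 4-fold dilution from 20 μM; 4-parameter variable-slope fit.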

OGA (S400 O-GLCNAC) = OGA (S400 O-GLCNAC) (Homo sapiens (Human), UniProt O60502); assay: Cellular OGA-Tau MSD Assay; type: cell-based; settings: HEK-293T cells transfected with OGT and Tau-V5; Tau-S400-GlcNAc MSD readout
Summary of the method: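 HEK-293T cells transiently co-expressing OGT and Tau-V5 were treated overnight at 37° C with compounds (top 1 uM, 3-fold, 10 points). Lysate Tau was captured on V5 antibody, and S400-GlcNAc was detected by MSD electrochemiluminescence. IC50 was derived from a 4-parameter fit of normalized % activity.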

[3] = Rat Liver Microsome Stability Assay; settings: rat liver microsomes 0.5 mg/mL, compound 1 μM; Qh 55 mL/minute/kg
Protocol: as §1, §2, §3, §4, §5

P-gp (MDR1) = assay: MDR1-MDCK Efflux Ratio Assay; type: in vitro ADME; settings: dog, MDR1-MDCK cells, pH 7.4, read-out: MDR1-MDCK Efflux Ratio (B-A/A-B)
Protocol: MDR1-MDCK cell monolayers were grown to confluence on microporous polyester membranes in 96-well Corning insert plates. The permeability assay buffer was Hanks' Balanced Salt Solution containing 10 mM HEPES at pH of 7.4. Loperamide (1 μM) was used as a positive control P-gp substrate. Propranolol and Bestatin (1 μM) were used as high and low permeability comparators, respectively.
Test compounds or positive control P-gp substrate/permeability comprators were added to respective apical and basolateral chambers for bidirectional assessment of permeability. Receiver buffer (transport buffer supplemented with 1% bovine serum albumin) was added to respective receiver chambers. MDR1-MDCK cells were incubated with test compounds at 37° C. with 5% CO2 for 2 hr. Samples were collected from the donor chamber at both 0 and 120 minutes, and from the receiver chamber at 120 minutes. Test and control compound concentrations were determined using LC-MS/MS analysis. Each determination was performed in triplicate.

Chain of Recombinant full length human OGA enzyme (O60502 whole entry): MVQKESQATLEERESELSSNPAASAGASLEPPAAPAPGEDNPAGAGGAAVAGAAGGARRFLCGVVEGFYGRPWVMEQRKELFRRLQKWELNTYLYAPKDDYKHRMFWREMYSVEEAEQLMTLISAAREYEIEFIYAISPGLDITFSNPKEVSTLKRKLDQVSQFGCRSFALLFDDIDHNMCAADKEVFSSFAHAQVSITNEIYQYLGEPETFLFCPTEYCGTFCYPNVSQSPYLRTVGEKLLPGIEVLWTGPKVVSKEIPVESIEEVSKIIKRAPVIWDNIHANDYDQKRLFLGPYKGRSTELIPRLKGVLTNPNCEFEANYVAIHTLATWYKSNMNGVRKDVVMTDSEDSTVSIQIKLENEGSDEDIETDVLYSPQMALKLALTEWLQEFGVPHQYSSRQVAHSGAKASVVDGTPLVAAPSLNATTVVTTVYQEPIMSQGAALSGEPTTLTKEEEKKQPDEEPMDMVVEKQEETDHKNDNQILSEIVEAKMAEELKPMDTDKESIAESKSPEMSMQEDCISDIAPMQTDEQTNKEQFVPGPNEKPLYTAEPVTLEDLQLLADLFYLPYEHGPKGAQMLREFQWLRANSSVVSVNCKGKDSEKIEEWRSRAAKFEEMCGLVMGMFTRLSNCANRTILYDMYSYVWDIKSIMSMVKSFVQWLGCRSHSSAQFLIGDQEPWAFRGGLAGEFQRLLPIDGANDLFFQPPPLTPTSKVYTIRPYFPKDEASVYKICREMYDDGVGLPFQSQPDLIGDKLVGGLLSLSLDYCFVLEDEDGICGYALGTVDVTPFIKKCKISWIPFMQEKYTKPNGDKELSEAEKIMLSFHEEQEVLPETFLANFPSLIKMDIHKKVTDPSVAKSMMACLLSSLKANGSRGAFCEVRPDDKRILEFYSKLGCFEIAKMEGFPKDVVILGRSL
Chain of OGA (S400 O-GLCNAC) (O60502 whole entry): as above

SMILES | RLM % Qh (%) [1] | IC50 [2] | IC50 (OGA (S400 O-GLCNAC)) | RLM % Qh (%) [3] | efflux ratio at 2 hr (P-gp (MDR1))
CC(=O)Nc1nc(F)c(CN2CCC3(Cc4ncccc4O3)C2)s1 (stereo not shown) [Example 91, N-(5-((3H-spiro[furo[3,2-b]pyridine-2,3′-pyrrolidin]-1′-yl)methyl)-4-fluorothiazol-2-yl)acetamide] | 45% | 70 nM | – | – | –
CC(=O)Nc1ncc(CN2C[C@@]3(Cc4cc(N5C[C@@H](C)O[C@H](C)C5)ncc4O3)C[C@@H]2C)s1 [Example 40, N-(5-(((2R,5′S)-5-((2R,6R)-2,6-Dimethylmorpholino)-5′-methyl-3H-spiro[furo[2,3-c]pyridine-2,3′-pyrrolidin]-1′-yl)methyl)thiazol-2-yl)acetamide] | – | 1.5 nM | 14 nM | 54% | 27
CC(=O)Nc1nc(F)c(CN2C[C@@]3(Cc4cc(N5CCN(C)CC5)ncc4O3)C[C@@H]2C)s1 [Example 45, N-(4-Fluoro-5-(((2R,5′S)-5′-methyl-5-(4-methylpiperazin-1-yl)-3H-spiro[furo[2,3-c]pyridine-2,3′-pyrrolidin]-1′-yl)methyl)thiazol-2-yl)acetamide] | – | < 1 nM | 3 nM | 65% | 94
COc1nccc2c1COC21CCCN(Cc2cnc(NC(C)=O)s2)C1 (stereo not shown) [Example 82, N-(5-((4-Methoxy-3H-spiro[furo[3,4-c]pyridine-1,3′-piperidin]-1′-yl)methyl)thiazol-2-yl)acetamide] | – | 1.6 nM | 126 nM | 78% | 4.4
CC(=O)Nc1nc(F)c(CN2CCC3(Cc4cnc(Cl)cc4O3)C2)s1 (stereo not shown) [Example 7, N-(5-((6-Chloro-3H-spiro[furo[3,2-c]pyridine-2,3′-pyrrolidin]-1′-yl)methyl)-4-fluorothiazol-2-yl)acetamide] | – | 54 nM | 301 nM | 46% | 6.7
CC(=O)Nc1ncc(CN2C[C@@]3(Cc4cc(Cl)ncc4O3)C[C@@H]2C)s1 [Example 11, N-(5-(((2R,5′S)-5-Chloro-5′-methyl-3H-spiro[furo[2,3-c]pyridine-2,3′-pyrrolidin]-1′-yl)methyl)thiazol-2-yl)acetamide] | – | 6 nM | 9 nM | 70% | 8.4
COCCN(C)c1cc2c(cn1)O[C@]1(C2)C[C@H](C)N(Cc2sc(NC(C)=O)nc2F)C1 [Example 33, N-(4-Fluoro-5-(((2R,5′S)-5-((2-methoxyethyl)(methyl)amino)-5′-methyl-3H-spiro[furo[2,3-c]pyridine-2,3′-pyrrolidin]-1′-yl)methyl)thiazol-2-yl)acetamide] | – | < 1 nM | 2 nM | 82% | 22
CC(=O)Nc1nc(F)c(CN2CCCC3(COc4ccccc43)C2)s1 (stereo not shown) [Example 54, N-(5-((2H-Spiro[benzofuran-3,3′-piperidin]-1′-yl)methyl)-4-fluorothiazol-2-yl)acetamide] | – | 1500 nM | > 1000 nM | 94% | 0.8
COCCOc1cc2c(cn1)O[C@]1(C2)C[C@H](C)N(Cc2sc(NC(C)=O)nc2F)C1 [Example 47, N-(4-Fluoro-5-(((2R,5′S)-5-(2-methoxyethoxy)-5′-methyl-3H-spiro[furo[2,3-c]pyridine-2,3′-pyrrolidin]-1′-yl)methyl)thiazol-2-yl)acetamide] | – | < 1 nM | 9 nM | 53% | 9.2
CC(=O)Nc1nc(F)c(CN2C[C@@]3(Cc4cc(C5CC5)ncc4O3)C[C@@H]2C)s1 [Example 24, N-(5-(((2R,5′S)-5-Cyclopropyl-5′-methyl-3H-spiro[furo[2,3-c]pyridine-2,3′-pyrrolidin]-1′-yl)methyl)-4-fluorothiazol-2-yl)acetamide] | – | 1 nM | 12 nM | 75% | 6.5
CC(=O)Nc1ncc(CN2C[C@@]3(Cc4cc(C(F)(F)F)ncc4O3)C[C@@H]2C)s1 [Example 22, N-(5-(((2R,5′S)-5′-Methyl-5-(trifluoromethyl)-3H-spiro[furo[2,3-c]pyridine-2,3′-pyrrolidin]-1′-yl)methyl)thiazol-2-yl)acetamide] | – | 17 nM | 25 nM | 39% | 11
CC(=O)Nc1nc(F)c(CN2C[C@@]3(Cc4ncccc4O3)C[C@@H]2C)s1 (single isomer, unassigned) [Example 19-a] | – | 1 nM | 5 nM | 62% | 14
COc1cc2c(cn1)[C@@]1(C[C@H](C)N(Cc3cnc(NC(C)=O)s3)C1)OC2 (single isomer, unassigned) [Example 76-b] | – | 160 nM | 38 nM | 89% | 8.9
CC(=O)Nc1ncc(CN2C[C@@]3(Cc4cc(N5C[C@@H](C)O[C@@H](C)C5)ncc4O3)C[C@@H]2C)s1 [Example 38, N-(5-(((2R,5′S)-5-((2R,6S)-2,6-Dimethylmorpholino)-5′-methyl-3H-spiro[furo[2,3-c]pyridine-2,3′-pyrrolidin]-1′-yl)methyl)thiazol-2-yl)acetamide] | – | 1.2 nM | 9.9 nM | 42% | 29.5
CC(=O)Nc1nc(F)c(CN2C[C@@]3(Cc4cc(=O)[nH]cc4O3)C[C@@H]2C)s1 [Example 49, N-(4-Fluoro-5-(((2R,5′S)-5′-methyl-5-oxo-5,6-dihydro-3H-spiro[furo[2,3-c]pyridine-2,3′-pyrrolidin]-1′-yl)methyl)thiazol-2-yl)acetamide] | – | 1 nM | 73 nM | 16% | 2.5
COc1nccc2c1COC21CCCN(Cc2sc(NC(C)=O)nc2F)C1 (stereo not shown) [Example 81, N-(4-Fluoro-5-((4-methoxy-3H-spiro[furo[3,4-c]pyridine-1,3′-piperidin]-1′-yl)methyl)thiazol-2-yl)acetamide] | – | 1.1 nM | 15.1 nM | 78% | 2.5
COc1cccc2c1OC1(CCN(Cc3sc(NC(C)=O)nc3F)C1)C2 (stereo not shown) [Example 4, N-(4-Fluoro-5-((7-methoxy-3H-spiro[benzofuran-2,3′-pyrrolidin]-1′-yl)methyl)thiazol-2-yl)acetamide] | – | 360 nM | > 1000 nM | 78% | 3.1
CC(=O)Nc1nc(F)c(CN2C[C@@]3(Cc4cc(N5C[C@@H](C)O[C@@H](C)C5)ncc4O3)C[C@@H]2C)s1 [Example 39, N-(5-(((2R,5′S)-5-((2R,6S)-2,6-Dimethylmorpholino)-5′-methyl-3H-spiro[furo[2,3-c]pyridine-2,3′-pyrrolidin]-1′-yl)methyl)-4-fluorothiazol-2-yl)acetamide] | – | 0.5 nM | 4.9 nM | 52% | 9.7
CC(=O)Nc1ncc(CN2CCCC3(C2)OCc2ccncc23)s1 (stereo not shown) [Example 74, N-(5-((1H-Spiro[furo[3,4-c]pyridine-3,3′-piperidin]-1′-yl)methyl)thiazol-2-yl)acetamide] | – | 13 nM | 22.6 nM | 75% | 36.5
CC(=O)Nc1nc(F)c(CN2C[C@@]3(Cc4cc(Cl)ncc4O3)C[C@@H]2C)s1 [Example 10, N-(5-(((2R,5′S)-5-Chloro-5′-methyl-3H-spiro[furo[2,3-c]pyridine-2,3′-pyrrolidin]-1′-yl)methyl)-4-fluorothiazol-2-yl)acetamide] | – | 1 nM | 8 nM | 75% | 5.2
CC(=O)Nc1nc(F)c(CN2C[C@@]3(Cc4cc(=O)n(C)cc4O3)C[C@@H]2C)s1 [Example 48, N-(5-(((2R,5′S)-5′,6-Dimethyl-5-oxo-5,6-dihydro-3H-spiro[furo[2,3-c]pyridine-2,3′-pyrrolidin]-1′-yl)methyl)-4-fluorothiazol-2-yl)acetamide] | – | 1.4 nM | 34 nM | 16% | 12
